Earlier results in patent US20130324399A1, “FUNGICIDAL COMPOSITIONS AND METHODS OF USE” (Bayer Cropscience LP, priority 2010, published 2013).

Test system: Pythium spp.
Details: Triadimenol, 15% w/v

Compound: CC(C)(C)C(O)C(Oc1ccc(Cl)cc1)n1cncn1 (stereo not shown) [Triadimenol, triadimenol]
- activity against Pythium spp.: no activity
